Laboratory results taken from US9951035B2, “Selective matrix metalloproteinase inhibitors” (University of Notre Dame du Lac, priority 2014, dated 2018).
Entries after “also recorded” stand apart in the source; their conditions may differ. Structures can show the parent of a compound that is named as a salt.

Experiments:
MMP-9 = MMP-9 (Homo sapiens (Human), UniProt P14780); assay: Gel experiment, cleavage of tau by MMP-9; type: biochemical; settings: in words
[1] = Pharmacokinetics and brain distribution after single iv dose
Description: Mice (male CD-1, 6-7 weeks old, ˜30 g body weight, specific pathogen free) were purchased from Charles River Laboratories, Inc. (Wilmington, Mass., USA).
Samples were analyzed by ultraperformance liquid chromatography (UPLC)/(+)electrospray ionization (ESI)-multiple-reaction monitoring (MRM) with a reversed phase C18 column (Acclaim® RSLC 120 C18, 2.2 μm, 120 Å, 2.1×100 mm, Dionex, Sunnyvale, Calif., USA).
Quantification of the compounds in plasma and brain was obtained using peak-area ratios of the compounds to the internal standard, and the linear-regression parameters obtained from the calibration curves.

diabetic (db/db) mice = assay: Mouse diabetic wound model; type: in vivo; settings: compared with ND-322; in words
Excerpt: The excisional mouse diabetic model validated by Sullivan et al. was used (Sullivan et al., Plast. Reconstr. Surg. (2004) 113, 953-960). The procedure for inflicting the wounds (single 8 mm wound on the dorsal region) was the same as described previously (Gooyit et al., ACS Chem. Biol. (2014) 9, 505-510). Wounds were photographed and covered with a sterile 3M Tegaderm™ transparent dressing (Butler Schein Animal Health, Inc.).
Female diabetic db/db (BKS.Cg-Dock7m+/+Leprdb/J, 8-weeks old, 38±3 g, n=24) were used for this study. Wounds were inflicted as described. Treatment with the MMP-2 inhibitor (50 μL of 5.0 mg/mL in 80% propylene glycol/20% DMSO, equivalent to 0.25 mg per wound) or vehicle (50 μL of 80% propylene glycol/20% DMSO) was started one day after wound infliction and continued once a day for 14 days. Digital photographs of wounds were taken on days 0, 7, 10, and 14 while the animals were under isoflurane anesthesia. On day 14, all mice were sacrificed. The wounds were excised, embedded in optimal cutting temperature (OCT) compound, and cryosectioned for histological evaluation.
Female diabetic db/db (BKS.Cg-Dock7m+/+Leprdb/J, 8-weeks old, 38±3 g, n=24) were used for this study. Wounds were inflicted and the following day the wounds were treated topically with MMP-8 (50 μL of 20 μg/mL MMP-8 in reaction buffer) or vehicle (50 μL reaction buffer) once a day for 14 days. The reaction buffer consisted of 50 mM Tris (pH 7.5), 10 mM CaCl2, 150 mM NaCl, and 0.05% (w/v) Brij-35. Digital photographs of the wounds were taken on days 0, 7, 10, and 14 while animals were under isoflurane anesthesia. On days 7 and 14, 12 mice (n=6 per group) were sacrificed. The wounds were excised, embedded in OCT compound, and cryosectioned for histological evaluation.
Photographs were taken using the procedure described by Gooyit et al. (ACS Chem Biol. (2014) 9, 505-510) at a fixed distance above the wounds and calibrated using a ruler included in the photographic frame. Image J 1.48c software was used to calculate wound areas. The percentage of wound closure was calculated from the wound area on the specified day relative to that on day 0.
Fresh wound tissue was harvested and embedded in OCT compound. Subsequently, the tissue was cryosectioned for H&E staining (12-μm thickness) and for apoptosis assays and in-situ zymography (8-μm thickness). Re-epithelialization was assessed on a Nikon Eclipse 90i Fluorescent Microscope (Nikon Instruments Inc.) as described earlier (Tkalcevic et al., Toxicol. Pathol. (2009) 37, 183-192). Apoptosis was evaluated using Derma TACS™ Apoptosis detection kits (Trevigen, Inc.) according to the manufacturer's instructions. The protocol of in-situ zymography was adapted from known methods. Gelatinolytic activity was detected in unfixed cryostat sections using DQ-gelatin as a substrate. DQ-gelatin was prepared at a concentration of 20 μg/mL in Tris-buffered saline (TBS) buffer (50 mM TBS pH 7.6, 1 mM CaCl2). A general MMP inhibitor in 0.5 mM EDTA was prepared as a negative control. Cryostat sections were air-dried for 10 min and incubated in the substrate mixture in the presence and absence of EDTA for 1 hr at room temperature. After the incubation period, the slides were washed in PBS (three times, 5 min each), fixed with 4% paraformaldehyde in PBS for 10 min in the dark, washed again with PBS (three times, 5 min each), incubated in the dark for 5 min with 300 nM DAPI solution, and mounted with anti-quenching mounting medium. Fluorescence of FITC was detected with excitation at 460-500 nm and emission at 512-542 nm. DAPI was detected with excitation at 340-380 nm and emission at 425-∞ nm.
Data are expressed as mean±SD. Wound healing between the groups in the studies were analyzed for statistical significance using a paired Student t-test, where p<0.05 was considered statistically significant.

MMP-7 = MMP-7 (Homo sapiens (Human), UniProt P09237); assay: Enzyme inhibition studies, MMP-7; type: biochemical; settings: at 100 μM; listed as ND-336, HCl salt
MMP-7, sequence (P09237 95-267): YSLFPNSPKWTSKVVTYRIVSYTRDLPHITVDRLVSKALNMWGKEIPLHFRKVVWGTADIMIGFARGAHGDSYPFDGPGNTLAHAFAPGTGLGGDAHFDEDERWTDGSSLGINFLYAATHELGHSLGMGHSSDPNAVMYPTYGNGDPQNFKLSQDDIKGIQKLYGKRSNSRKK

[2] = male, CD-1, mouse, in vivo, 5 mg/kg
[3] = male, CD-1, mouse, in vivo, iv, 5 mg/kg
[4] = plasma, 5 mg/kg single iv, mice

MMP-9, sequence (P14780 94-707, species assumed): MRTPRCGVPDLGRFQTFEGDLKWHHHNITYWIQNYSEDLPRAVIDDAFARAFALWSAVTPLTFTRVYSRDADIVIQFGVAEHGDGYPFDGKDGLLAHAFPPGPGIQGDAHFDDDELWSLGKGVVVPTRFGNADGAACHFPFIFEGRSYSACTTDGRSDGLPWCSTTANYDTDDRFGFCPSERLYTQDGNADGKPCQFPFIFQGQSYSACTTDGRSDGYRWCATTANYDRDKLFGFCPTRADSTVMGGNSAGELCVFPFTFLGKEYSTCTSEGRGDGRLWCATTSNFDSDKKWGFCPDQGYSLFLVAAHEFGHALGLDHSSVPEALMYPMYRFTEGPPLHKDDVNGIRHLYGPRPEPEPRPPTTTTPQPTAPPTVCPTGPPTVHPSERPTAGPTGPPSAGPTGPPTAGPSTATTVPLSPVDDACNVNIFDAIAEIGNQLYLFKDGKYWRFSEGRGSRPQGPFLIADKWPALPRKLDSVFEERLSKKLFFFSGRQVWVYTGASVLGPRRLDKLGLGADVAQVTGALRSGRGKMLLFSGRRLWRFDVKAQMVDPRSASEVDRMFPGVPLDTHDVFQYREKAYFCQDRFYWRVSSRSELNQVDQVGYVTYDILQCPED

NCc1ccc(Oc2ccc(S(=O)(=O)CC3CS3)cc2)cc1 (centres unmarked) [Compound 5, (4-(4-((Thiiran-2-ylmethyl)sulfonyl)phenoxy)phenyl)methanamine HCl salt]
cleavage of tau in the presence of MMP-9 (MMP-9): prevents cleavage of tau | time brain levels above Ki for MMP-2 ([1]; 5 mg/kg single iv, mice): at least 30 min | time brain levels above Ki for MMP-9 ([1]; 5 mg/kg single iv, mice): at least 30 min | time plasma levels above Ki for MMP-2 ([1]; 5 mg/kg single iv, mice): at least 30 min | time plasma levels above Ki for MMP-9 ([1]; 5 mg/kg single iv, mice): at least 30 min | Brain concentration ([1]; 2 min after 5 mg/kg single iv, mice): 5.55 ± 2.38 pmol/mg tissue | Brain concentration ([1]; 5 min after 5 mg/kg single iv, mice): 2.97 ± 2.41 pmol/mg tissue | Brain concentration ([1]; 10 min after 5 mg/kg single iv, mice): 1.20 ± 0.50 pmol/mg tissue | Brain concentration ([1]; 30 min after 5 mg/kg single iv, mice): 0.213 ± 0.143 pmol/mg tissue | Brain concentration ([1]; 60 min after 5 mg/kg single iv, mice): 0.0368 ± 0.0232 pmol/mg tissue | Brain concentration ([1]; 90 min after 5 mg/kg single iv, mice): 0.0213 ± 0.0106 pmol/mg tissue | Brain concentration ([1]; 120 min after 5 mg/kg single iv, mice): 0.0158 ± 0.0125 pmol/mg tissue | Brain concentration ([1]; 240 min after 5 mg/kg single iv, mice): 0.00531 ± 0.00402 pmol/mg tissue | AUC0-last ([1]; brain, 5 mg/kg single iv, mice): 57.7 pmol·min/mg | AUC0-∞ ([1]; brain, 5 mg/kg single iv, mice): 58.3 pmol·min/mg | t1/2α ([1]; brain, 5 mg/kg single iv, mice): 3.32 min | t1/2β ([1]; brain, 5 mg/kg single iv, mice): 75.3 min | crossing of the blood-brain barrier ([1]; in words, listed as ND-336, HCl salt): cross the blood-brain barrier; also recorded: crosses the BBB | concentration at 2 min [1, 2]: 4350 ± 1100 nM | concentration at 5 min [1, 2]: 3150 ± 1490 nM | concentration at 10 min [1, 2]: 2390 ± 820 nM | concentration at 30 min [1, 2]: 377 ± 116 nM | concentration at 60 min [1, 2]: 57.4 ± 31.6 nM | concentration at 90 min [1, 2]: 33.2 ± 6.5 nM | concentration at 120 min [1, 2]: 21.8 ± 5.4 nM | concentration at 240 min [1, 2]: 6.94 ± 6.06 nM | AUC(0-inf) [1, 3]: 1.23 µM·h | AUC(0-t) [1, 3]: 1.22 µM·h | Kp [1, 3]: 0.793 | Vd [1, 3]: 2.76 L/kg | clearance [1, 3]: 202 mL/min/kg | AUC0-last [1, 4]: 72.9 µM·min | AUC0-∞ [1, 4]: 73.6 µM·min | CL [1, 4]: 202 mL/min/kg | t1/2α [1, 4]: 6.47 min | t1/2β [1, 4]: 68.0 min | efficacy in mouse model of diabetic wound healing (diabetic (db/db) mice): significantly better efficacy than ND-322 | Inhibition (MMP-7): Ki (MMP-7) 1% inhibition at 100 μM
